Experiment [1] has as its system Ctenocephalides felis. In words: Topical treatment in-vivo test with cat flea on rats. Particulars: topical spot-on, 25 mg/kg. The procedure: (§1) Topical Treatment In-Vivo Test with American Dog Tick Nymph and Cat Flea on Rats
(§2) Type of study and overall study design: The method is a randomized non-blinded efficacy study in accordance with European animal welfare requirements. Rats (Rattus norvegicus) were randomized based on pre-treatment flea counts. The efficacy of treatment was determined by comparison of the flea and tick counts of different treatment groups versus the placebo-treated control group. The experimental unit was the individual study animal.
(§3) Method and route of administration: The compound was applied in a suitable solvent and carrier (more specifically, added to the following mixture: 33.3% by weight propylene carbonate, […] N-methylpyrrolidone, 0.1% by weight BHA, 0.05% by weight BHT) considering the individual body weight as topical spot-on between the shoulder blades directly onto the skin.
(§4) Experimental infestation: On the day of treatment and weekly thereafter, 30 ticks (D. variabilis nymphs) were released onto the back of each rat, and 30 fleas (C. felis) were released onto the back of each rat 24 h later.
(§5) Tick and Flea counting: Rats were thoroughly examined and ticks and fleas were manually removed 48 h (+4 h) after tick infestation and 24 h after flea infestation. Live fleas and live attached engorged ticks were counted. In non-evident cases, engorgement status was evaluated by squeezing the tick on a filter paper to find traces of blood as sign for engorgement.

Experiment [2] has as its system Ctenocephalides felis. In words: Ctenocephalides felis in-vitro feeding test with fleas (CTECFE oral). To be noted: 48 hours, read-out: insecticidal feeding activity. The procedure, abridged:
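Scored as percent fleas killed (0–100%) 48 hours after feeding began. Compound, dissolved in DMSO and diluted into citrated cattle blood, was offered via a parafilm membrane to roughly 20 adult male and female C. felis at about 37° C.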

Experiment [3] deals with Dermacentor variabilis. In words: Topical treatment in-vivo test with American dog tick nymph on rats. To be noted: topical spot-on, 25 mg/kg. The method, then: as §1, §2, §3, §4, §5
For experiment [4], the system named is Dermacentor variabilis. In words: In vitro contact test with adult hard ticks (Dermacentor variabilis). Particulars: read-out: acaricidal activity. A digest of the protocol:
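Acaricidal activity = % ticks dead or moribund after 48 h contact with acetone-deposited compound on vial walls (e.g., 900 ppm solution → 5 μg/cm^2). Ambient conditions for R. sanguineus, 21° C./85% rel. hum. for other species; heat challenge at 45-50° C. separated climbers from moribund ticks.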

With `CN(C(=O)c1ccc(F)c(F)c1)c1cccc(C(=O)Nc2c(I)cc(C(F)(C(F)(F)F)C(F)(F)F)cc2C(F)(F)F)c1F` [Compound 51], the “Geometric mean percent reduction in live flea (Ctenocephalides felis) counts compared to untreated control rats” value stood at 100% in the experiment with Ctenocephalides felis [1] (SD 2); 98% in the experiment on Ctenocephalides felis [1] (SD 9); 91% with Ctenocephalides felis [1] (SD 16); 95% with Ctenocephalides felis [1] (SD 23); 93% in the experiment with Ctenocephalides felis [1] (SD 30). Besides, the pest or weed control at 0.0064 ppm in the experiment with Ctenocephalides felis [2] (dose 0.0064 ppm in citrated cattle blood) amounted to 95%. Also, the pest or weed control at 0.032 ppm with Ctenocephalides felis [2] (dose 0.032 ppm in citrated cattle blood) amounted to 95%. Besides, the pest or weed control at 0.16 ppm with Ctenocephalides felis [2] (dose 0.16 ppm in citrated cattle blood) amounted to 95%. For the same compound, in the experiment on Ctenocephalides felis [2] (dose 0.8 ppm in citrated cattle blood), the pest or weed control at 0.8 ppm turned out to be 95%. Further, in the experiment with Ctenocephalides felis [2] (dose 4 ppm in citrated cattle blood), the pest or weed control at 4 ppm was found to be 95%. For the same compound, the “Geometric mean percent reduction in live tick (Dermacentor variabilis) counts compared to untreated control rats” value is reported as 82% with Dermacentor variabilis [3] (SD 2); 95% in the experiment with Dermacentor variabilis [3] (SD 9); 80% in the experiment with Dermacentor variabilis [3] (SD 16); 73% in the experiment on Dermacentor variabilis [3] (SD 23); 55% in the experiment with Dermacentor variabilis [3] (SD 30). Moreover, the pest or weed control at 0.2 µg/cm2, 0.2 µg/cm2 with Dermacentor variabilis [4] (dose 0.2 μg/cm^2, 48 h) was 90%. Moreover, in the experiment on Dermacentor variabilis [4] (dose 1 μg/cm^2, 48 h), the pest or weed control at 1 µg/cm2, 1 µg/cm2 is 90%.

Source of the values: patent publication US11696913B2, “Prolonged ectoparasite-controlling agent for animal” (MITSUI CHEMICALS AGRO, INC., priority 2017, dated 2023).
